These are literature values, as cited in patent US20220370477A1, “Solid Oral Dosage Forms Of Dexamethasone” (Jubilant Generics Limited, priority 2021, published 2022).

“Also recorded” adds a separate entry of the source. Where two headings read alike, the source gives them in different places.

For the compound `C[C@@H]1C[C@H]2[C@@H]3CCC4=CC(=O)C=C[C@]4(C)[C@@]3(F)[C@@H](O)C[C@]2(C)[C@@]1(O)C(=O)CO` [Dexamethasone, 9-fluoro-11β,17,21trihydroxy-16α-methylpregna-1,4-diene-3 ,20-dione], the Solubility result is, setting by setting: (in acetone) “sparingly soluble”; (in dichloromethane) “slightly soluble”; (in ethanol) “sparingly soluble”; (in methanol) “sparingly soluble”; (in water) “practically insoluble; also recorded: poorly water-soluble”.
